Values after ≈ are worked out from the molar mass of the structure shown.
Tests used:
[1] = molecular target: T1, Cytochrome P450 1A2 (Homo sapiens, UniProt P05177); test: Inhibition of CYP1A2 in human liver microsomes using phenacetin as substrate after 15 mins by LC/MS/MS analysis
T1 sequence (P05177 whole entry): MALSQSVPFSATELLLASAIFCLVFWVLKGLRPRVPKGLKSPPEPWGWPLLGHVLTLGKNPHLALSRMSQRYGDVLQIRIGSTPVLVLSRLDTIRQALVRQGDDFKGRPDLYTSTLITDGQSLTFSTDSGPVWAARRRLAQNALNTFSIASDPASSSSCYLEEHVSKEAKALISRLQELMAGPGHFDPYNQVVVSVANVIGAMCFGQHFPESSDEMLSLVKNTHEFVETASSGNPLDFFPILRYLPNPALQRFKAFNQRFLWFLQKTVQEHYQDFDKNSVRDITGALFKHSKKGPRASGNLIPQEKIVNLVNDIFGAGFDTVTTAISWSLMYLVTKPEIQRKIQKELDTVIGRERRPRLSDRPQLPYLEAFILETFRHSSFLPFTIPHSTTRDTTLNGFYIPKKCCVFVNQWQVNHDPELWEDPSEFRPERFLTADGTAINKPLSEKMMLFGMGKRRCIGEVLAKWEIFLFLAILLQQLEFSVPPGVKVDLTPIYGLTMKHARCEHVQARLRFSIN

[2] = test system: Staphylococcus epidermidis; test: Antibacterial activity against methicillin-resistant Staphylococcus epidermidis after 16 hrs by agar dilution method; type: functional
[3] = test system: Staphylococcus epidermidis; test: Antibacterial activity against methicillin-sensitive Staphylococcus epidermidis after 16 hrs by agar dilution method; type: functional
[4] = test system: Streptococcus pneumoniae; test: Antibacterial activity against penicillin-resistant Streptococcus pneumoniae after 16 hrs by agar dilution method; type: functional
[5] = molecular target: Cytochrome P450 2D6 (Homo sapiens, UniProt P10635); test: Inhibition of CYP2D6 in human liver microsomes using dextromethorphan as substrate after 15 mins by LC/MS/MS analysis
[6] = molecular target: T2, Cytochrome P450 3A4 (Homo sapiens, UniProt P08684); test: Inhibition of CYP3A4 in human liver microsomes using testosterone as substrate after 15 mins by LC/MS/MS analysis
[7] = test system: Staphylococcus aureus; test: Antibacterial activity against Staphylococcus aureus […] after 16 hrs by agar dilution method; type: functional
[8] = molecular target: Cytochrome P450 2C9 (Homo sapiens, UniProt P11712); test: Inhibition of CYP2C9 in human liver microsomes using tolbutamide as substrate after 15 mins by LC/MS/MS analysis
[9] = molecular target: T2, Cytochrome P450 3A4; test: Inhibition of CYP3A4 in human liver microsomes using midazolam as substrate after 15 mins by LC/MS/MS analysis
[10] = test system: Staphylococcus aureus; test: Antibacterial activity against methicillin-resistant Staphylococcus aureus after 16 hrs by agar dilution method; type: functional
[11] = molecular target: Cytochrome P450 2C19 (Homo sapiens, UniProt P33261); test: Inhibition of CYP2C19 in human liver microsomes using mephenytoin as substrate after 15 mins by LC/MS/MS analysis
[12] = test system: Staphylococcus aureus; test: Antibacterial activity against methicillin-sensitive Staphylococcus aureus after 16 hrs by agar dilution method; type: functional
[13] = Aqueous solubility of the compound in water at pH 7.4; conditions: buffer
[14] = AUC (0 to t) in Sprague-Dawley rat at 2 mg/kg, iv administered as cassette dosing; type: ADME, organism-based; design: dose 2 mg/kg, route intravenous; conditions: plasma
[15] = Clearance in Sprague-Dawley rat at 2 mg/kg, iv administered as cassette dosing; type: ADME, organism-based; design: dose 2 mg/kg, route intravenous; conditions: in vivo
[16] = Elimination half life in Sprague-Dawley rat at 2 mg/kg, iv administered as cassette dosing; type: ADME, organism-based; design: dose 2 mg/kg, route intravenous; conditions: in vivo, read-out: beta t1/2 (converted)
[17] = Volume of distribution at steady state in Sprague-Dawley rat at 2 mg/kg, iv administered as cassette dosing; type: ADME, organism-based; design: dose 2 mg/kg, route intravenous; conditions: in vivo, read-out: Vdss
[18] = Mean residence time in Sprague-Dawley rat at 2 mg/kg, iv administered as cassette dosing; type: ADME, organism-based; design: dose 2 mg/kg, route intravenous; conditions: in vivo

Chain of Cytochrome P450 2D6 (P10635 whole entry): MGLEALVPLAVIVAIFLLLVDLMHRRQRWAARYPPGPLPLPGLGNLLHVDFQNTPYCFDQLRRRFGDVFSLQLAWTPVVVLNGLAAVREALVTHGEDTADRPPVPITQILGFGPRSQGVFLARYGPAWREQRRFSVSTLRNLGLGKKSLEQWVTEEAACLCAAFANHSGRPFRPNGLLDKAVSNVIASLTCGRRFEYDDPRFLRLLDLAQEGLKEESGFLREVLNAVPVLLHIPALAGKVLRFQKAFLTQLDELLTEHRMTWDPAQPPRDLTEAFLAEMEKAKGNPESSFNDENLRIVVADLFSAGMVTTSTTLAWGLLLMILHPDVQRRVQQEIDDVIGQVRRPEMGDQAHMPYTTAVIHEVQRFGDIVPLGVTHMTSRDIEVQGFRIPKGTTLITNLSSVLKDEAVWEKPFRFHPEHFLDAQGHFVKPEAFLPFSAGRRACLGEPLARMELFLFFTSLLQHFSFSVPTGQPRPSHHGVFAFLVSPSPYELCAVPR
T2 sequence (P08684 whole entry): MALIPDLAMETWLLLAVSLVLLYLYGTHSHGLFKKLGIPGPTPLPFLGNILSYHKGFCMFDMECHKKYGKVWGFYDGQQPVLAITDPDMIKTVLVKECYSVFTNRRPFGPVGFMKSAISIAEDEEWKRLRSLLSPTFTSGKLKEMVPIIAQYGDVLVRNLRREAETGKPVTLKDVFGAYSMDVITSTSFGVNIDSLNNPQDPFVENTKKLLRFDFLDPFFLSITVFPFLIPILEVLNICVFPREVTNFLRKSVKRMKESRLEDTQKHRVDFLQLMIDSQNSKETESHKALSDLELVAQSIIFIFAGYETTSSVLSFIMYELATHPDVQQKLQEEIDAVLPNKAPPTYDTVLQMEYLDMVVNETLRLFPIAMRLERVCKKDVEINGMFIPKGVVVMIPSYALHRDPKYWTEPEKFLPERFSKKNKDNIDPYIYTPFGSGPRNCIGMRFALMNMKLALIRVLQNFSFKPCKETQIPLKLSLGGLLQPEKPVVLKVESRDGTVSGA
Chain of Cytochrome P450 2C9 (P11712 whole entry): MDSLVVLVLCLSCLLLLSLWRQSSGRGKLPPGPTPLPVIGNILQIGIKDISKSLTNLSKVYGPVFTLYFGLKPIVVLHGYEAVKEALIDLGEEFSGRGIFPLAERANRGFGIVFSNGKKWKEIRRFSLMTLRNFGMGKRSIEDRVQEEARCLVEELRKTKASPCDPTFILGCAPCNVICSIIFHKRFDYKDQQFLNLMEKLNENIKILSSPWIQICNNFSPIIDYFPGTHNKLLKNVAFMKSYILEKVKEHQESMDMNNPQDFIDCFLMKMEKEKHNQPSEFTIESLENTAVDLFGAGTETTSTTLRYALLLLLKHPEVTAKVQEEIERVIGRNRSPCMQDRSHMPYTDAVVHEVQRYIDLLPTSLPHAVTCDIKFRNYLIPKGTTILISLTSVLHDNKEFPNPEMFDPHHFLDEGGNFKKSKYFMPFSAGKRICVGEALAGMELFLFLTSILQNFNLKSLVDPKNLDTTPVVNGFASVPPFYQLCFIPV
Chain of Cytochrome P450 2C19 (P33261 whole entry): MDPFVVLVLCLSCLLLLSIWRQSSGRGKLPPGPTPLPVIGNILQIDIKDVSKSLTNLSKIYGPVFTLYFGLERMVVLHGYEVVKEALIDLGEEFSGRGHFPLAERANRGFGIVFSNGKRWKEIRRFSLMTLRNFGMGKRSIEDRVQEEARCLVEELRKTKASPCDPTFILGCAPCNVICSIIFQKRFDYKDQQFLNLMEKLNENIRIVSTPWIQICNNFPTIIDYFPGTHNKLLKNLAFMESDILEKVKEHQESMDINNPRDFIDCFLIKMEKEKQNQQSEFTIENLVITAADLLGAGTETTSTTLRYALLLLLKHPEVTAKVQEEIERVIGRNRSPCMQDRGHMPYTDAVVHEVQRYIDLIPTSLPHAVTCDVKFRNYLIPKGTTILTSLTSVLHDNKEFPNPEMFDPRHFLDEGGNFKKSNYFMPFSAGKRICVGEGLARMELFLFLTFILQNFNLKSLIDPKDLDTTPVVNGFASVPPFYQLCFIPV

Row | Structure (SMILES) | IC50 [1] [µM] | MIC [2] [µg/mL] | MIC [3] [µg/mL] | MIC [4] [µg/mL] | IC50 [5] [µM] | IC50 [6] [µM] | MIC [7] [µg/mL] | IC50 [8] [µM] | IC50 [9] [µM] | MIC [10] [µg/mL] | IC50 [11] [µM] | MIC [12] [µg/mL] | solubility [13] | AUC(0-t) [14] [ng·h/mL] | clearance [15] [mL/min/kg] | half-life [16] [min] | Vd [17] [L/kg] | MRT [18] [min]
1 | C=C[C@]1(C)C[C@@H](OC(=O)CSc2ccccn2)[C@]2(C)[C@H](C)CC[C@]3(CCC(=O)[C@H]32)[C@@H](C)[C@@H]1O | > 10 | 0.031 (≈ 0.0657 µM) | 0.031 (≈ 0.0657 µM) | 0.031 (≈ 0.0657 µM) | > 10 | 1.36 | 0.063 (≈ 0.134 µM) | > 10 | 1.25 | 0.031 (≈ 0.0657 µM) | > 10 | 0.031 (≈ 0.0657 µM) |  |  |  |  |  | 
2 | C=C[C@]1(C)C[C@@H](OC(=O)CSc2cccc(CO)c2)[C@]2(C)[C@H](C)CC[C@]3(CCC(=O)[C@H]32)[C@@H](C)[C@@H]1O | > 25 | 0.063 (≈ 0.126 µM) | 0.063 (≈ 0.126 µM) | 0.063 (≈ 0.126 µM) | > 25 | 1.9 | 0.063 (≈ 0.126 µM) | 11.1 | 1.95 | 0.063 (≈ 0.126 µM) | 15.4 | 0.063 (≈ 0.126 µM) |  |  |  |  |  | 
3 | C=C[C@]1(C)C[C@@H](OC(=O)CSc2cncc(N)c2)[C@]2(C)[C@H](C)CC[C@]3(CCC(=O)[C@H]32)[C@@H](C)[C@@H]1O | > 25 | 0.031 (≈ 0.0637 µM) | 0.031 (≈ 0.0637 µM) | 0.063 (≈ 0.129 µM) | 17.1 | 0.0444 | 0.031 (≈ 0.0637 µM) | > 25 | 0.135 | 0.031 (≈ 0.0637 µM) | 15.5 | 0.063 (≈ 0.129 µM) | Insoluble |  |  |  |  | 
4 | C=C[C@]1(C)C[C@@H](OC(=O)CSc2cncc(NC(=O)CN)c2)[C@]2(C)[C@H](C)CC[C@]3(CCC(=O)[C@H]32)[C@@H](C)[C@@H]1O |  | 0.125 (≈ 0.23 µM) | 0.125 (≈ 0.23 µM) | 0.063 (≈ 0.116 µM) |  |  | 0.063 (≈ 0.116 µM) |  |  | 0.063 (≈ 0.116 µM) |  | 0.063 (≈ 0.116 µM) |  | 41 | 828 | 20.4 | 13.8 | 16.8
5 | C=C[C@]1(C)C[C@@H](OC(=O)CSc2cncc(NC(=O)[C@@H](N)[C@@H](C)CC)c2)[C@]2(C)[C@H](C)CC[C@]3(CCC(=O)[C@H]32)[C@@H](C)[C@@H]1O |  | 0.25 (≈ 0.417 µM) | 0.25 (≈ 0.417 µM) | 0.25 (≈ 0.417 µM) |  |  | 0.25 (≈ 0.417 µM) |  |  | 0.25 (≈ 0.417 µM) |  | 0.25 (≈ 0.417 µM) |  |  |  |  |  | 
6 | C=C[C@]1(C)C[C@@H](OC(=O)CSc2cncc(NC(=O)[C@@H](N)CC(C)C)c2)[C@]2(C)[C@H](C)CC[C@]3(CCC(=O)[C@H]32)[C@@H](C)[C@@H]1O |  | 0.063 (≈ 0.105 µM) | 0.063 (≈ 0.105 µM) | 0.063 (≈ 0.105 µM) |  |  | 0.031 (≈ 0.0517 µM) |  |  | 0.063 (≈ 0.105 µM) |  | 0.063 (≈ 0.105 µM) |  | 69 | 488 | 37.8 | 10.3 | 21
7 | C=C[C@]1(C)C[C@@H](OC(=O)CSc2cncc(NC(=O)[C@H]3CCCCN3)c2)[C@]2(C)[C@H](C)CC[C@]3(CCC(=O)[C@H]32)[C@@H](C)[C@@H]1O |  | 0.125 (≈ 0.209 µM) | 0.031 (≈ 0.0519 µM) | 0.125 (≈ 0.209 µM) |  |  | 0.125 (≈ 0.209 µM) |  |  | 0.125 (≈ 0.209 µM) |  | 0.063 (≈ 0.105 µM) |  |  |  |  |  | 
8 | C=C[C@]1(C)C[C@@H](OC(=O)CSc2cncc(NC(=O)[C@@H]3CCCN3)c2)[C@]2(C)[C@H](C)CC[C@]3(CCC(=O)[C@H]32)[C@@H](C)[C@@H]1O |  | 0.125 (≈ 0.214 µM) | 0.063 (≈ 0.108 µM) | 0.031 (≈ 0.0531 µM) |  |  | 0.125 (≈ 0.214 µM) |  |  | 0.125 (≈ 0.214 µM) |  | 0.031 (≈ 0.0531 µM) |  |  |  |  |  | 
9 | C=C[C@]1(C)C[C@@H](OC(=O)CSc2cncc(NC(=O)CN(C)C)c2)[C@]2(C)[C@H](C)CC[C@]3(CCC(=O)[C@H]32)[C@@H](C)[C@@H]1O |  | 0.125 (≈ 0.219 µM) | 0.125 (≈ 0.219 µM) | 0.125 (≈ 0.219 µM) |  |  | 0.5 (≈ 0.874 µM) |  |  | 0.125 (≈ 0.219 µM) |  | 0.5 (≈ 0.874 µM) |  |  |  |  |  | 

Source: ChEMBL document CHEMBL3286253, “Design, synthesis, and structure-activity relationship studies of novel thioether pleuromutilin derivatives as potent antibacterial agents” (J Med Chem, 2014)
